In US8067454B2, “Thio-substituted Anthra [1, 2-d] imidazole- 6, 11-dione derivatives, preparation method and application thereof” (National Defense Medical Center, priority 2010, dated 2011):

Assays:
GBM8901 = assay: MTT assay, GBM8901 tumor cell; conditions: for Cell survival rate (%) GBM8901: concentration 10 μM, tumor cell
SVG p12 = assay: MTT assay, SVG p12 normal cell; conditions: for Cell survival rate (%) SVG p12: concentration 10 μM, normal cell
GBM8401 = assay: MTT assay, GBM8401 tumor cell; conditions: for Cell survival rate (%) GBM8401: concentration 10 μM, tumor cell; for inhibitory effect against tumor cell GBM8401: survival rate less than 80%
[1] = system: telomerase (total cell lysates of lung cancer cell line H1299); assay: Telomeric Repeat Amplification Protocol (TRAP) assay, screen of telomerase inhibitors; format: biochemical, human; conditions: 10 μM
Method: Telomeric Repeat Amplification Protocol (TRAP) Assay:
Telomerase activity was detected by a modified version of the general TRAP protocol. Telomerase products were resolved by 10% polyacrylamide gel electrophoresis and visualized by staining with SYBER Green. As a source of telomerase, the total cell lysates derived from lung cancer cell line H1299 cells were used. Protein concentration of the lysates was assayed using Bio-Rad protein assay kit using BSA standards.
In the TRAP assay, if a compound can stabilize the G-quadruplex structure such that telomerase can not act on telomere, then the effect of inhibiting the telomerase can be achieved. In the FIG. 2A to FIG. 2C, DMSO treatment represents as the positive control group (P); while a negative control group (N) used 5 μl of 0.1 mg/ml RNase A (CLONTECH) in the assay. It could be observed that a number of telomeric fragments were detected in the positive control group (P), while none was detected in the negative control group (N). 10 μM was selected as the concentration used to screen compounds.

[2] = system: SVG p12, GBM8401 and GBM8901; assay: MTT assay, normal cell versus tumor cells (categories 39-3 to 39-7); conditions: tumor cell survival rate less than 80%; for category 39-5: survival rate higher than 80% for normal cell SVG p12 and only inhibits growth of tumor cell GBM8901: FIG. 5C; for category 39-3: survival rate higher than 80% for normal cell SVG p12 and inhibits growth of both tumor cells GBM8401 and GBM8901: FIG. 5A

Row | Structure (SMILES) | Cell survival rate (%) GBM8901 (GBM8901) [%] | Cell survival rate (%) SVG p12 (SVG p12) [%] | Cell survival rate (%) GBM8401 (GBM8401) [%] | inhibition effect against telomerase [1] | category 39-5: survival rate higher than 80% for normal cell SVG p12 and only inhibits growth of tumor cell GBM8901 [2] | without cell toxicity for normal cell SVGP p12 (SVG p12; survival rate higher than 80%) | category 39-4: survival rate higher than 80% for normal cell SVG p12 and only inhibits growth of tumor cell GBM8401 ([2]; FIG. 5B) | inhibitory effect against tumor cell GBM8901 (GBM8901; survival rate less than 80%) | category 39-3: survival rate higher than 80% for normal cell SVG p12 and inhibits growth of both tumor cells GBM8401 and GBM8901 [2] | inhibitory effect against tumor cell GBM8401 (GBM8401)
1 | CCN(CC)C(=O)CCSc1nc2ccc3c(c2[nH]1)C(=O)c1ccccc1C3=O [f1-20, 3-(6,11-dioxo-6,11-dihydro-1H-anthra[1,2-d]imidazol-2-ylthio)-N,N-diethylpropanamide] | 30 ± 2 | 46 ± 2 | 28 ± 11 |  |  |  |  |  |  | 
2 | O=C1c2ccccc2C(=O)c2c1ccc1nc(SC(=O)N3CCOCC3)[nH]c21 [f2-2, S-6,11-dioxo-6,11-dihydro-1H-anthra[1,2-d]imidazol-2-yl morpholine-4-carbothioate] | 43 ± 2 | 96 ± 7 | 92 ± 11 | exhibited inhibition effect against telomerase |  |  |  |  |  | 
3 | O=C1c2ccccc2C(=O)c2c1ccc1nc(SCCCN3CCCCC3)[nH]c21 [f1-14, 2-(3-(piperidin-1-yl)propylthio)-1H-anthra[1,2-d]imidazole-6,11-dione] | 10 ± 2 | 12 ± 1 | 6 ± 10 |  |  |  |  |  |  | 
4 | C#CCSc1nc2ccc3c(c2[nH]1)C(=O)c1ccccc1C3=O [f1-7, 2-(prop-2-ynylthio)-1H-anthra[1,2-d]imidazole-6,11-dione] | 7 ± 2 | 98 ± 2 | 38 ± 10 |  | in this category |  |  |  |  | 
5 | CN1CCN(C(=O)Sc2nc3ccc4c(c3[nH]2)C(=O)c2ccccc2C4=O)CC1 [f2-3, S-6,11-dioxo-6,11-dihydro-1H-anthra[1,2-d]imidazol-2-yl 4-methylpiperazine-1-carbothioate] | 38 ± 2 | 62 ± 3 | 62 ± 11 | exhibited inhibition effect against telomerase |  |  |  |  |  | 
6 | O=C1c2ccccc2C(=O)c2c1ccc1nc(SCCN3CCOCC3)[nH]c21 [f1-13, 2-(2-morpholinoethylthio)-1H-anthra[1,2-d]imidazole-6,11-dione] | 68 ± 2 | 62 ± 8 | 38 ± 9 |  |  |  |  |  |  | 
7 | O=C1c2ccccc2C(=O)c2c1ccc1nc(SCCC(=O)N3CCOCC3)[nH]c21 [f1-17, 2-(3-morpholino-3-oxopropylthio)-1H-anthra[1,2-d]imidazole-6,11-dione] | 48 ± 1 | 80 ± 0 | 23 ± 10 |  |  | without cell toxicity for normal cell SVGP p12 | in this category |  |  | 
8 | CCCCSc1nc2ccc3c(c2[nH]1)C(=O)c1ccccc1C3=O [f1-3, 2-(Butylthio)-1H-anthra[1,2-d]imidazole-6,11-dione] | 10 ± 4 | 98 ± 7 | 78 ± 16 |  | in this category |  |  |  |  | 
9 | CCCN(CCC)C(=O)CSc1nc2ccc3c(c2[nH]1)C(=O)c1ccccc1C3=O [f1-23, 2-(6,11-dioxo-6,11-dihydro-1H-anthra[1,2-d]imidazol-2-ylthio)-N,N-dipropylacetamide] | 18 ± 0 | 80 ± 7 | 82 ± 15 |  | in this category |  |  |  |  | 
10 | O=C1c2ccccc2C(=O)c2c1ccc1nc(SCCC(=O)N3CCCC3)[nH]c21 [f1-22, 2-(3-oxo-3-(pyrrolidin-1-yl)propylthio)-1H-anthra[1,2-d]imidazole-6,11-dione] | 28 ± 2 | 80 ± 3 | 40 ± 15 |  | in this category |  |  |  |  | 
11 | O=C(CCc1ccccc1)Sc1nc2ccc3c(c2[nH]1)C(=O)c1ccccc1C3=O [f2-4, S-6,11-dioxo-6,11-dihydro-1H-anthra[1,2-d]imidazol-2-yl 3-phenylpropanethioate] | 72 ± 6 | 61 ± 2 | 62 ± 15 |  |  |  |  |  |  | 
12 | CCN(CC)C(=O)Sc1nc2ccc3c(c2[nH]1)C(=O)c1ccccc1C3=O [f2-9, S-6,11-dioxo-6,11-dihydro-1H-anthra[1,2-d]imidazol-2-yl diethylcarbamothioate] | 50 ± 0 | 90 ± 8 | 46 ± 13 |  |  |  |  | exhibited inhibitory effect against tumor cell GBM8901 | in this category | exhibited inhibitory effect against tumor cell GBM8401
13 | O=C1c2ccccc2C(=O)c2c1ccc1nc(SCCCCCl)[nH]c21 [f1-8, 2-(4-Chlorobutylthio)-1H-anthra[1,2-d]imidazole-6,11-dione] | 65 ± 10 | 66 ± 3 | 43 ± 10 |  |  |  |  |  |  | 
14 | Cc1ccccc1CSc1nc2ccc3c(c2[nH]1)C(=O)c1ccccc1C3=O [f1-4, 2-(2-Methylbenzylthio)-1H-anthra[1,2-d]imidazole-6,11-dione] | 18 ± 8 | 58 ± 5 | 25 ± 10 |  |  |  |  |  |  | 
15 | O=C(Sc1nc2ccc3c(c2[nH]1)C(=O)c1ccccc1C3=O)c1cc(C(F)(F)F)ccc1C(F)(F)F [f2-5, S-6,11-dioxo-6,11-dihydro-1H-anthra[1,2-d]imidazol-2-yl 2,5-bis(trifluoromethyl)benzothioate] | 68 ± 6 | 82 ± 1 | 40 ± 13 |  |  |  |  |  | in this category | 
16 | O=C1c2ccccc2C(=O)c2c1ccc1nc(SCC(=O)N3CCOCC3)[nH]c21 [f1-16, 2-(2-morpholino-2-oxoethylthio)-1H-anthra[1,2-d]imidazole-6,11-dione] | 39 ± 2 | 60 ± 1 | 30 ± 9 |  |  |  |  |  |  | 
17 | O=C1c2ccccc2C(=O)c2c1ccc1nc(SCCCCCCCl)[nH]c21 [f1-10, 2-(6-Chlorohexylthio)-1H-anthra[1,2-d]imidazole-6,11-dione] | 60 ± 2 | 81 ± 1 | 78 ± 5 |  |  |  |  |  | in this category | 
18 | COC(=O)CCCSc1nc2ccc3c(c2[nH]1)C(=O)c1ccccc1C3=O [f1-5, Methyl-(6,11-dioxo-6,11-dihydro-1H-anthra[1,2-d]imidazol-2-ylthio)butanoate] | 80 ± 2 | 92 ± 5 | 70 ± 10 |  |  |  |  |  |  | 
19 | O=C1c2ccccc2C(=O)c2c1ccc1nc(SC(=O)N3CCCC3)[nH]c21 [f2-7, S-6,11-dioxo-6,11-dihydro-1H-anthra[1,2-d]imidazol-2-yl pyrrolidine-1-carbothioate] | 42 ± 7 | 62 ± 5 | 72 ± 18 |  |  |  |  |  |  | exhibited inhibitory effect against tumor cell GBM8401
20 | O=C1c2ccccc2C(=O)c2c1ccc1nc(SC(=O)N3CCCCC3)[nH]c21 [f2-8, S-6,11-dioxo-6,11-dihydro-1H-anthra[1,2-d]imidazol-2-yl piperidine-1-carbothioate] | 100 ± 0 | 92 ± 3 | 99 ± 25 |  |  |  |  |  |  | 
21 | COC(=O)/C=C/CSc1nc2ccc3c(c2[nH]1)C(=O)c1ccccc1C3=O [f1-6, (E)-methyl 4-(6,11-dioxo-6,11-dihydro-1H-anthra[1,2-d]imidazol-2-ylthio)but-2-enoate] | 44 ± 5 | 90 ± 6 | 82 ± 7 |  | in this category |  |  |  |  | 
